Measured values published in patent US20210054106A1, “OMNIPHILIC NANO-VESICLES BASED ON MODIFIED POLYSACCHARIDES FOR DELIVERY OF ACTIVE AGENTS” (THE STATE OF ISRAEL, MINISTRY OF AGRICULTURE & RURAL …, priority 2018, published 2021).

Assay: Franz diffusion cell model, RB permeation
Type: in vitro ADME
Conditions: sunflower oil donor, PBS pH 7.4 receptor, 32 °C, up to 16 h

In the case of `CCN(CC)c1ccc2c(-c3ccccc3C(=O)O)c3ccc(=[N+](CC)CC)cc-3oc2c1.[Cl-]` [RB, Rhodamine B], the “RB permeation across lipophilic membrane into aqueous phase” value is reported as “scarcely permeates”.
